Laboratory results: patent US20140113964A1, “METHOD OF PREVENTING AND TREATING ALLERGIC AIRWAY DISEASES VIA INTRANASAL GABEXATE MESILATE” (priority 2012, published 2014)
Where a SMILES comes first, the peptide text is derived from it. [ ]: non-standard residue; d: D form. The star is where a group is joined. Sta = CC(C)C[C@H](N)[C@@H](O)CC(=O)O; Isovaleryl = CC(C)CC(=O)*

Legend:
[1] = system: protease activity of CraA; assay: azocasein assay of the protease activity of CraA with protease inhibitors; format: biochemical, American cockroach; conditions: azocasein substrate, 37° C., 30 mins, absorbance at 440 nm; FIG. 1
Description: In brief, azocasein was used as a substrate to measure the protease activity of CraA. Twenty μL of CraA was added into 80 μL azocasein solution (0.5% (w/v), lysed in 100 mM phosphate buffer) and incubated in 37° C. water bath for 30 mins. Afterwards, 20 μL of 10% trichloroacetic acid was added to stop the reaction. Further, the mixture was centrifuged with 6000 g for 10 mins. Consequently, 50 μL of supernatant was mixed with 50 μL of NaOH (0.2N), and the absorbance was measure at 440 nm. Moreover, various protease inhibitors were applied to inhibit the protease activity of CraA, for instance, PMSF (serine protease), aprotinin (serine protease), pepstatin (aspartic acid protease), E-64 (cysteine protease) and EDTA (metalloprotease), so as to confirm the serine protease activity of CraA.
With reference to FIG. 1 for a schematic view of inhibition of protease activity of CraA in accordance with an embodiment of the present invention, the protease activity inhibition was shown after treatment of different kinds of […].

Beas2B cells [2] = assay: cell viability of Beas2B cells, trypan blue staining and counting; format: cell-based, Human
Description: With reference to FIG. 5 for a schematic view of cell viability of Beas2B cells treated with gabexate mesilate (GM) in accordance with an embodiment of the present invention, 3×10^5 Beas2B cells were seeded in a 3.5-cm dish with subsequently starvation for 16 hrs. After treating the cells with gabexate mesilate of various concentrations for 24 hrs, the cells were stained with trypan blue and counted the numbers of total cells, dead cells and survived cells so as to convert the numbers into a viability of the cells.
Referring to FIG. 5, the IC50 of the cells to gabexate mesilate is 600 μg/mL, that is, the cell viability with respect to gabexate mesilate at concentration of 600 μg/mL is 50%. […] Accordingly, the pharmaceutical effective amount of the composition comprising gabexate mesilate may be between 1-600 μg/mL, preferably between 10-300 μg/mL.

Beas2B cells [3] = assay: CraA-induced dissociation of Beas2B cells, bright field microscope; format: cell-based, Human; conditions: 36, 75, 150 or 300 μg/mL gabexate mesilate for 30 mins, then 5 μg/mL CraA; FIG. 6
Description: With reference to FIG. 2 is a schematic view of Beas2B cells treated with various doses of CraA in accordance with an embodiment of the present invention, 3×10^5 Beas2B cells were seeded in a 6-well plate and treated with 0, 5, 10, 20, 30 and 40 μg/mL of CraA, respectively. Afterwards, the cells were observed by the bright field microscope.

[4] = system: IL-8, MCP-1, GM-CSF and CCL20 genes; assay: RT-PCR of chemokine genes (IL-8, MCP-1, GM-CSF, CCL20) in Beas2B cells treated with CraA; format: cell-based, Human; conditions: pre-treatment 30 mins, then 5 μg/mL CraA, increasing doses; FIG. 7
Description: Referring to FIG. 4, the mRNA levels of various cytokines in response to treatment of CraA was measured by RT-PCR. To be brief, 3×10^5 Beas2B cells were seeded in a 6-well plate and treated with 5 μg/mL of CraA for 1, 2, 3, 4, 5, 16 and 24 hrs, respectively. After the treatment, the cells were harvested by TRIzol (Invitrogen), and RNA of the cells was extracted. The extracted RNA was reverse-transcribed into cDNA by SuperScript polymerase (Invitrogen) according to the manufacturer's instruction. Moreover, IL-8, MCP-1, GM-CSF and CCL20 genes were amplified by RT-PCR and analyzed by 2% agarose gel. The expression levels of the above mentioned genes were normalized with the expression of β-actin.

IL-8 and MCP-1 proteins = assay: IL-8 and MCP-1 protein levels in Beas2B cells treated with CraA; format: cell-based, Human; conditions: pre-treatment 30 mins, then 5 μg/mL CraA, time courses; FIG. 8
Description: With reference to FIGS. 6-8 for a schematic view of protection effects of gabexate mesilate (GM) on Beas2B cells treated with CraA, a schematic view of chemokines detected by RT-PCR in Beas2B cells treated with CraA and gabexate mesilate and a quantification result of IL-8 and MCP-1 proteins in Beas2B cells treated with CraA and gabexate mesilate in accordance with an embodiment of the present invention, 3×10^5 Beas2B cells were seeded in a 6-well plate and subsequently treated with gabexate mesilate for 30 mins. Afterwards, the cells were further treated with 5 μg/mL of CraA. Consequently, the cells were either observed by bright field microscope and analyzed the gene expression and the protein level of the cytokines, such as IL-8, MCP-1, GM-CSF and CCL20, as mentioned above.

murine asthma model = conditions: intra-peritoneal injection; cited from earlier work

Molecule: CC(C)CC(=O)N[C@H](C(=O)N[C@H](C(=O)N[C@@H](CC(C)C)[C@@H](O)CC(=O)N[C@@H](C)C(=O)N[C@@H](CC(C)C)[C@@H](O)CC(=O)O)C(C)C)C(C)C [pepstatin] (Isovaleryl-VV[Sta]A[Sta]-OH)
- inhibition of the protease activity of CraA [1]: not significantly inhibited

Molecule: CC(C)C[C@H](NC(=O)[C@H]1O[C@@H]1C(=O)O)C(=O)NCCCCN=C(N)N [E-64]
- inhibition of the protease activity of CraA [1]: not significantly inhibited

Molecule: aprotinin
- inhibition of the protease activity of CraA [1]: obviously inhibited

Molecule: CCOC(=O)c1ccc(OC(=O)CCCCCN=C(N)N)cc1.CS(=O)(=O)O [gabexate mesilate]
- survived cells (Beas2B cells [2]; 1200 μg/mL, 24 hrs): no survived cells
- IC50 of the cells to gabexate mesilate (cell viability) (Beas2B cells [2]; Beas2B cells, 24 hrs treatment, trypan blue, FIG. 5): 600 µg/mL
- dissociation of Beas2B cells treated with CraA (Beas2B cells [3]): reverse the dissociation of the cells
- expression of IL-8, MCP-1, GM-CSF and CCL20 genes induced by CraA [4]: obviously decreases the gene expression induced by CraA
- protein levels of IL-8 and MCP-1 (IL-8 and MCP-1 proteins): significantly decreased
- allergen-induced airway inflammation and eosinophilia (murine asthma model): attenuates allergen-induced airway inflammation and eosinophilia

Molecule: O=S(=O)(F)Cc1ccccc1 [PMSF]
- inhibition of the protease activity of CraA [1]: obviously inhibited

Molecule: O=C(O)CN(CCN(CC(=O)O)CC(=O)O)CC(=O)O [EDTA]
- inhibition of the protease activity of CraA [1]: not significantly inhibited
